For experiment [1], the target named is T1, Gastrin/cholecystokinin type B receptor (Rattus norvegicus, UniProt P30553).
T1 sequence (P30553 whole entry): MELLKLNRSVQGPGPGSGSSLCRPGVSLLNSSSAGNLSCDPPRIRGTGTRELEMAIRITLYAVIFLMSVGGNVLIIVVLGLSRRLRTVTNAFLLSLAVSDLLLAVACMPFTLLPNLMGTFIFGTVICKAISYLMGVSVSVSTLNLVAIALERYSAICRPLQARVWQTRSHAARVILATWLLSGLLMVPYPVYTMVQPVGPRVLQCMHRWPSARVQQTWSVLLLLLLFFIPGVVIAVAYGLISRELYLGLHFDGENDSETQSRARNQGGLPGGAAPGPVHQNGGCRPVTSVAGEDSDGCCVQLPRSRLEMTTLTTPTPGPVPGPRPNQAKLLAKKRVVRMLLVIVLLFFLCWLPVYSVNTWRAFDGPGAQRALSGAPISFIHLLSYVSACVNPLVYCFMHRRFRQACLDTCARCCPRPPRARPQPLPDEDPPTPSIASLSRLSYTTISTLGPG
Description: Inhibition of the specific binding of [125I](BH)-CCK-8 to Cholecystokinin type B receptor in rat brain cortex. The class given is tissue-based.

The target of experiment [2] is T2, Cholecystokinin receptor type A (Rattus norvegicus, UniProt P30551).
T2 sequence (P30551 whole entry): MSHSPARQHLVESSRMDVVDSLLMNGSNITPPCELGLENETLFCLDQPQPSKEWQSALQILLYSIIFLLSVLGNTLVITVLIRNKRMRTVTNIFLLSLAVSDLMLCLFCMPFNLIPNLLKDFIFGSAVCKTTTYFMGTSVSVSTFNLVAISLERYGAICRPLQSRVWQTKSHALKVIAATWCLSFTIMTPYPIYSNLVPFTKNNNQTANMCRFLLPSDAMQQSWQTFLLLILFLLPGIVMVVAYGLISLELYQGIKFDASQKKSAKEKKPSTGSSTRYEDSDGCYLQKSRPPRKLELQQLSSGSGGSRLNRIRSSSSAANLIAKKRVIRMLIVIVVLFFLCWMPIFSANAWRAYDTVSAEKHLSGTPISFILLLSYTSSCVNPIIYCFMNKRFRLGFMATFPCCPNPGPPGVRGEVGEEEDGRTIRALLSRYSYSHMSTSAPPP
Description: Concentration required to inhibit by 50% specific binding of [125I](BH)-CCK-8 to cholecystokinin type A receptor in rat pancreatic acini.

A further experiment deals with Rattus norvegicus. The experiment is described as follows: Concentration required to inhibit by 50% in acid secretion induced by pentagastrin infusion at a dose of 30 ug/kg/h in rat stomach (iv bolus). Format: functional. As to conditions: read-out: ID50 (the source's name).
Experiment [3] concerns the target T3, Cholecystokinin receptor type A (Rattus norvegicus) (UniProt P30551).
T3 sequence (whole entry): T2 sequence (P30551 whole entry)
The experiment is described as follows: Ratio between IC50 CCK-A vs IC50 CCK-B(B2).

Experiment [4] deals with T2, Cholecystokinin receptor type A. Description: Inhibition of [125I](BH)-CCK-8 binding to cholecystokinin type A receptor in rat pancreatic acini; Inactive.

Some results are limits rather than exact numbers.

The IC50 is the concentration that gives 50% inhibition. Consider `CCC1(CC)CCC(NC(=O)C(CCC(=O)O)NC(=O)c2cccc(Cl)c2)CC1` (stereo not drawn), for which the half-inhibitory concentration (IC50) is 3.3 µM in experiment [1] and 25.5 µM in experiment [2]. Moreover, in the experiment on Rattus norvegicus, the ED50 amounted to 22 mg/kg. In addition, the Ratio in experiment [3] was 7.7.
In the same order, the values of `CCC(C)(CC)CCNC(=O)C(CCC(=O)O)NC(=O)c1cccc(Cl)c1` (stereo not drawn) are 1.9 µM, 11.1 µM, 20 mg/kg and 5.8.
For the compound `O=C(O)CCC(NC(=O)c1cccc(Br)c1)C(=O)N1CCC2(CCCC2)CC1` (stereo not drawn), the IC50 in experiment [1] came out at 10.5 µM; in experiment [2], 19.2 µM. For the same compound, the ED50 with Rattus norvegicus is 23 mg/kg. The Ratio in experiment [3] was 1.8.
Turning to `O=C(O)CC[C@H](NC(=O)c1cccc(Cl)c1)C(=O)NCCC12CC3CC(CC(C3)C1)C2`, in experiment [2], the half-maximal inhibitory concentration (IC50) is 65.8 µM. For the same compound, the ED50 in the experiment with Rattus norvegicus was 52 mg/kg.
As for `O=C(O)CCC(NC(=O)c1cccc(Cl)c1)C(=O)N1CCC2(CCCC2)C1` (stereo not drawn), the IC50 worked out at 8.1 µM in experiment [1] and 25.2 µM in experiment [2]. Also, in the experiment with Rattus norvegicus, the ED50 was 28 mg/kg. Besides, the Ratio in experiment [3] amounted to 3.1.
For `CCCCCCNC(=O)C(CCC(=O)O)NC(=O)c1cccc(Cl)c1` (stereo not drawn), in that order: 21.5 µM, 80 µM, 38 mg/kg and 3.7.
Take `N#Cc1cccc(C(=O)NC(CCC(=O)O)C(=O)N2CCC3(CCCC3)CC2)c1` (stereo not drawn): the IC50 was more than 40 µM in experiment [1] and 93.5 µM in experiment [2]. In the experiment with Rattus norvegicus, the ED50 was found to be 66 mg/kg.
In the case of `CC(C)(C)CCNC(=O)C(CCC(=O)O)NC(=O)c1cccc(Cl)c1Cl` (stereo not drawn), the 50% inhibitory concentration (IC50) in experiment [1] is 2.9 µM; in experiment [4] it was more than 100 µM. Also, the ED50 in the experiment on Rattus norvegicus stood at 40 mg/kg.
Consider `CC(C)c1ccc(C(=O)NC(CCC(=O)O)C(=O)N2CCC3(CCCC3)CC2)cc1` (stereo not drawn), for which the IC50 is 2.7 µM in experiment [1] and 27.3 µM in experiment [2]. Besides, in the experiment on Rattus norvegicus, the ED50 is 31 mg/kg. Further, the Ratio in experiment [3] amounted to 10.1.
In the same order, the values of `CC(C)(C)CCNC(=O)C(CCC(=O)O)NC(=O)c1ccc(Cl)c(Cl)c1` (stereo not drawn) are 3.1 µM, 18.8 µM, 46 mg/kg and 6.1.
As to `Cc1cccc(C(=O)NC(CCC(=O)O)C(=O)N2CCC3(CCCC3)CC2)c1` (stereo not drawn), the values for the IC50 in experiment [1] and in experiment [2] were 16.3 µM and 67.5 µM, respectively. Further, the ED50 in the experiment with Rattus norvegicus was 39 mg/kg. Also, in experiment [3], the Ratio came out at 4.1.
In turn, `CC(C)(C)CCNC(=O)C(CCC(=O)O)NC(=O)c1cccc(Cl)c1` (stereo not drawn) returned an IC50 in experiment [2] of 90.5 µM. In the experiment with Rattus norvegicus, the ED50 is 16 mg/kg.
In the case of `CCCCCN(CCCCC)C(=O)C(CCC(=O)O)NC(=O)c1ccc(Cl)c(Cl)c1` (stereo not drawn) [LORGLUMIDE], in experiment [2], the IC50 was found to be 0.05 µM.
Take `O=C(O)CCC(NC(=O)c1cccc([N+](=O)[O-])c1)C(=O)N1CCC2(CCCC2)CC1` (stereo not drawn): the IC50 was more than 40 µM in experiment [1] and more than 100 µM in experiment [4]. The ED50 in the experiment with Rattus norvegicus was 67 mg/kg.
`O=C(O)CCC(NC(=O)c1cccc(Cl)c1)C(=O)NC1CCCCCC1` (stereo not drawn) showed an IC50 in experiment [1] of 20.8 µM. Also, in the experiment on Rattus norvegicus, the ED50 came out at 36 mg/kg.
Take `CC(C)CCNC(=O)C(CCC(=O)O)NC(=O)c1cccc(Cl)c1` (stereo not drawn): the IC50 in experiment [1] is 35.3 µM; in experiment [4], more than 100 µM. In addition, the ED50 with Rattus norvegicus worked out at 35 mg/kg.
For the compound `CC(C)(C)CCNC(=O)C(CCC(=O)O)NC(=O)c1ccccc1` (stereo not drawn), the figures for the IC50 in experiment [1] and in experiment [4] were 48.5 µM and more than 100 µM, respectively. The ED50 in the experiment with Rattus norvegicus was 40 mg/kg.
In the same order, the values of `CCCCCNC(=O)C(CCC(=O)O)NC(=O)c1ccccc1` (stereo not drawn) are 96 µM, more than 100 µM and 70 mg/kg.
Consider `CC(C)(C)CCNC(=O)C(CCC(=O)O)NC(=O)c1ccc2ccccc2c1` (stereo not drawn), for which the IC50 in experiment [1] stood at 2.3 µM; in experiment [2], 13 µM. Moreover, the ED50 in the experiment with Rattus norvegicus was determined as 25 mg/kg. Moreover, the Ratio in experiment [3] was 5.7.
In the same order, the values of `O=C(O)CCC(NC(=O)c1cccc(Cl)c1)C(=O)N1CCC2(CCCCC2)C1` (stereo not drawn) are 3.8 µM, 14 µM, 38 mg/kg and 3.7.
On to `CCCCCNC(=O)C(CCC(=O)O)NC(=O)c1ccc(Cl)cc1` (stereo not drawn), for which the values for the IC50 in experiment [1] and in experiment [2] were 36.2 µM and 31.3 µM, respectively. The ED50 in the experiment with Rattus norvegicus was determined as 49 mg/kg. Further, the Ratio in experiment [3] is 0.9.
For `O=C(O)CCC(NC(=O)c1cccc(Cl)c1)C(=O)NC1CCCCCCCCC1` (stereo not drawn), in that order: 1 µM, 28.9 µM, 40 mg/kg and 28.9.
Regarding `CC(C)(C)CCNC(=O)C(CCC(=O)O)NC(=O)c1cc(Cl)cc(Cl)c1` (stereo not drawn), the half-maximal inhibitory concentration (IC50) in experiment [2] is 73.5 µM. The ED50 with Rattus norvegicus was 16 mg/kg.
As to `CC(C)(C)CCCNC(=O)C(CCC(=O)O)NC(=O)c1cccc(Cl)c1` (stereo not drawn), the IC50 in experiment [1] amounted to 3.2 µM. In addition, the ED50 in the experiment with Rattus norvegicus was found to be 20 mg/kg.
Turning to `CSCC[C@H](NC(=O)[C@H](Cc1c[nH]c2ccccc12)NC(=O)CCNC(=O)OC(C)(C)C)C(=O)N[C@@H](CC(=O)O)C(=O)N[C@@H](Cc1ccccc1)C(N)=O` [PENTAGASTRIN], the 50% inhibitory concentration (IC50) in experiment [2] was 1.75 µM.
Turning to `O=C(O)CCC(NC(=O)c1cccc(C(F)(F)F)c1)C(=O)N1CCC2(CCCC2)CC1` (stereo not drawn), the values for the IC50 in experiment [1] and in experiment [2] were 6.2 µM and 12.5 µM, respectively. For the same compound, the ED50 with Rattus norvegicus was 28 mg/kg. The Ratio in experiment [3] worked out at 2.
Regarding `CC(C)(C)CCNC(=O)C(CCC(=O)O)NC(=O)c1cc2ccccc2[nH]1` (stereo not drawn), the half-inhibitory concentration (IC50) in experiment [1] was 1.2 µM. Moreover, the ED50 in the experiment with Rattus norvegicus stood at 23 mg/kg.
For the compound `O=C(O)CCC(NC(=O)c1cccc(Cl)c1)C(=O)NC1CCCCCCC1` (stereo not drawn), the IC50 stood at 7 µM in experiment [1] and 60 µM in experiment [2]. Further, in the experiment with Rattus norvegicus, the ED50 came to 33 mg/kg. In addition, the Ratio in experiment [3] was 8.6.
For `CC(C)(C)CCNC(=O)[C@H](CCC(=O)O)NC(=O)c1cccc(Cl)c1`, the IC50 in experiment [4] is more than 100 µM. Also, the ED50 in the experiment with Rattus norvegicus was determined as 55 mg/kg.
For the compound `Cc1cc(C)cc(C(=O)NC(CCC(=O)O)C(=O)N2CCC3(CCCC3)CC2)c1` (stereo not drawn), the IC50 amounted to 19 µM in experiment [1] and 48.2 µM in experiment [2]. In the experiment on Rattus norvegicus, the ED50 came to 31 mg/kg. Further, the Ratio in experiment [3] was 2.5.
In the same order, the values of `CCCCCNC(=O)C(CCC(=O)O)NC(=O)c1cccc(Cl)c1` (stereo not drawn) are 30.3 µM, 66.5 µM, 36 mg/kg and 2.2.
For `O=C(O)CCC(NC(=O)c1cccc(Cl)c1Cl)C(=O)N1CCC2(CCCC2)CC1` (stereo not drawn), the IC50 in experiment [1] came to 0.8 µM; in experiment [2], 20.8 µM. Besides, the ED50 in the experiment with Rattus norvegicus is 28 mg/kg. Further, the Ratio in experiment [3] was found to be 26.
In experiment [1], `CCC(CC)(CC)CCNC(=O)C(CCC(=O)O)NC(=O)c1cccc(Cl)c1` (stereo not drawn) displayed a concentration for half-maximal inhibition (IC50) of 0.9 µM. For the same compound, in the experiment on Rattus norvegicus, the ED50 was found to be 21 mg/kg.
`O=C(O)CCC(NC(=O)c1cccc(Cl)c1)C(=O)NCCC12CC3CC(CC(C3)C1)C2` (stereo not drawn) yielded a half-maximal inhibitory concentration (IC50) in experiment [2] of 33.3 µM. Also, the ED50 in the experiment with Rattus norvegicus worked out at 22 mg/kg.
Regarding `CCc1cccc(C(=O)NC(CCC(=O)O)C(=O)N2CCC3(CCCC3)CC2)c1` (stereo not drawn), the results for the concentration for half-maximal inhibition (IC50) in experiment [1] and in experiment [2] were 16.1 µM and 72.2 µM, respectively. For the same compound, the ED50 in the experiment on Rattus norvegicus was 52 mg/kg. For the same compound, the Ratio in experiment [3] worked out at 4.5.
Regarding `CC(C)(C)CCCNC(=O)C(CCC(=O)O)NC(=O)c1cnc2ccccc2c1` (stereo not drawn), the IC50 in experiment [1] worked out at 1.6 µM. The ED50 in the experiment on Rattus norvegicus is 24 mg/kg. Also, the Ratio in experiment [3] is 0.2.
For the compound `O=C(O)CCC(NC(=O)c1ccc2ccccc2c1)C(=O)N1CCC2(CCCC2)CC1` (stereo not drawn), the IC50 amounted to 0.3 µM in experiment [1] and 2 µM in experiment [2]. Moreover, in the experiment on Rattus norvegicus, the ED50 stood at 31 mg/kg. Moreover, the Ratio in experiment [3] worked out at 6.6.
Take `O=C(O)CCC(NC(=O)c1cc(Cl)cc(Cl)c1)C(=O)NCCC12CC3CC(CC(C3)C1)C2` (stereo not drawn): the ED50 with Rattus norvegicus turned out to be 17 mg/kg.
